From patent US8192962B2, “Processes for detecting toxic substances” (Daikin Industries, Ltd., priority 2001, dated 2012)

Test system: Genes belonging to other category
Test: DNA chip mRNA expression in yeast, genes belonging to other category (Table 9)
Type: cell-based, Saccharomyces cerevisiae S288C
Experimental: Yeast (Saccharomyces cerevisiae S288C (α SUC2mal mel gap2 CUP1)) were incubated at 25° C. on YPD medium (yeast extract 1%, polypepton 2%, glucose 2%). One of toxic chemical substances was added to the cells at logarithmic growth phase, and the cells were further incubated for two hours. Cells were cultured without any chemical substance in the same condition, and were used as control. Concentrations of the chemical substances were defined to inhibit the growth of the yeast but not lead to death.
After completion of the incubation, the culture was centrifuged to collect the cells. To the cells, sodium acetate buffer (50 mM sodium acetate, 10 mM EDTA, 1% SDS) was added, and the mixture was shaken at 65° C. for five minutes, followed by returning to room temperature, and obtaining the supernatant, of which the procedures were repeated two times. To the supernatant, ½ amount of a solution of phenol/chloroform was added, and the mixture was centrifuged to give a supernatant, which was added with an equal amount of chloroform, and the mixture was centrifuged to give a supernatant. To the supernatant, an equal amount of isopropanol containing 0.3 M sodium acetate was added, and the mixture was allowed to stand at room temperature for 30 minutes, after which the mixture was centrifuged to give a sediment of the whole RNAs. Seventy % ethanol was added to the sediment, and the mixture was again centrifuged to give a sediment, which was then dried and dissolved in water. mRNA was isolated from the whole RNAs as followings. In view of the fact that a poly A chain is attached to the 3′ terminus of mRNA, a polynucleotide having a poly T structure which was immobilized on the surface of latex beads was used to trap the mRNA, and then the mRNA was washed and eluted with spine column (Oligotex-dT30<Super>mRNA Purification Kit, Takara). Reverse transcription of the mRNA was conducted with a reverse transcriptase (Super Script II Reverse Transcriptase; catalogue No. 18064-014, GibcoBRL) using fluorescence-labeled nucleotides to give cDNAs that were introduced with Cy3-dUTP or Cy5-dUTP during the reverse transcription.
The labeled cDNAs were dissolved in TE buffer (10mM Tris-HCl/1 mM EDTA, pH8.0), and the solution was dropped on the DNA chip containing the whole genes of yeast (DNA Chip Research Inc. Japan) so that the cDNAs were hybridized on the DNA chip at 65° C. for over 12 hours. The fluoresces intensity of the DNA chip was read with a scanner, and the ratio relative to the fluorescence intensity resulting from the absence of chemical substance was estimated as the following, which is shown in Tables 1 to 9: […]

Measured: The level of expressed mRNA in the presence of chemical substance/The level of expressed mRNA in the absence of chemical substance

O=[N+]([O-])c1cc[n+]([O-])c2ccccc12 [(5), 4-nitroquinolin-N-oxide]
1.8: yeast gene YDL008W | yeast gene YDL018C | yeast gene YDL137W | yeast gene YDR373W | yeast gene YGL011C | yeast gene YGR120C | yeast gene YGR274C | yeast gene YIL076W | yeast gene YKL117W | yeast gene YNR010W
0.6: yeast gene YIL123W | yeast gene YJL210W | yeast gene YKL096W | yeast gene YMR297W
1.0: yeast gene YAR010C | yeast gene YAR062W | yeast gene YBL101C | yeast gene YBR212W | yeast gene YBR290W | yeast gene YDR259C | yeast gene YDR378C | yeast gene YDR481C | yeast gene YFR004W | yeast gene YGL158W | yeast gene YGL229C | yeast gene YGR023W | yeast gene YHR132C | yeast gene YKL007W | yeast gene YKR076W | yeast gene YLR178C | yeast gene YMR004W | yeast gene YOL109W | yeast gene YOR327C | yeast gene YOR355W
1.9: yeast gene YCR039C | yeast gene YER094C | yeast gene YKL013C
0.8: yeast gene YEL066W | yeast gene YIL140W | yeast gene YOR198C | yeast gene YPL149W
1.2: yeast gene YCL027W | yeast gene YCR004C | yeast gene YCR071C | yeast gene YDR084C | yeast gene YDR403W | yeast gene YER009W | yeast gene YFL043C | yeast gene YGR136W | yeast gene YGR213C | yeast gene YIL010W | yeast gene YJL073W | yeast gene YJR117W | yeast gene YLR391W | yeast gene YNL007C | yeast gene YNL093W | yeast gene YOR117W | yeast gene YOR185C | yeast gene YPL109C | yeast gene YPL154C
1.3: yeast gene YBL005W-A | yeast gene YDR104C | yeast gene YER107C | yeast gene YGL094C | yeast gene YGL207W | yeast gene YGR257C | yeast gene YHR139C | yeast gene YHR142W | yeast gene YJL116C | yeast gene YJR086W | yeast gene YKL041W | yeast gene YLR327C | yeast gene YMR276W | yeast gene YPR108W
0.7: yeast gene YBL078C | yeast gene YDR388W | yeast gene YDR510W | yeast gene YEL042W | yeast gene YFL022C | yeast gene YGR189C | yeast gene YKL039W | yeast gene YMR104C | yeast gene YMR275C | yeast gene YOL013C | yeast gene YOR157C | yeast gene YOR181W
1.4: yeast gene YAL055W | yeast gene YAR009C | yeast gene YBR009C | yeast gene YBR283C | yeast gene YCR062W | yeast gene YDL192W | yeast gene YDR115W | yeast gene YDR358W | yeast gene YER021W | yeast gene YFL026W | yeast gene YHR185C | yeast gene YJL035C | yeast gene YLR250W | yeast gene YLR429W | yeast gene YNR069C | yeast gene YPL010W | yeast gene YPL089C | yeast gene YPR080W
1.6: yeast gene YBL041W | yeast gene YDR432W | yeast gene YLR136C | yeast gene YMR219W | yeast gene YOL164W
1.1: yeast gene YBL043W | yeast gene YBR214W | yeast gene YCR088W | yeast gene YHR027C | yeast gene YHR169W | yeast gene YJL053W | yeast gene YJL089W | yeast gene YJL164C | yeast gene YJR004C | yeast gene YKL193C | yeast gene YLR120C | yeast gene YLR356W | yeast gene YOR036W | yeast gene YOR124C | yeast gene YOR132W | yeast gene YOR288C
0.9: yeast gene YDL238C | yeast gene YDR085C | yeast gene YDR315C | yeast gene YKL008C | yeast gene YKL165C | yeast gene YMR094W | yeast gene YMR226C | yeast gene YNL006W | yeast gene YOR383C
1.5: yeast gene YER025W | yeast gene YER039C | yeast gene YHR004C | yeast gene YHR071W | yeast gene YHR195W | yeast gene YLR362W | yeast gene YMR238W | yeast gene YNL333W | yeast gene YOR261C
2.1: yeast gene YCR096C
1.7: yeast gene YDR055W | yeast gene YER130C | yeast gene YFL028C | yeast gene YPR103W
2.0: yeast gene YGR253C | yeast gene YOR259C
0.5: yeast gene YCL020W
